Like-named read-outs stand apart in the source and are kept apart here.
Experiments:
TB927.8.6460 = test: Multitargeted bead mixture competition; format: binding, T. brucei; conditions: for fold change: CONSERVED, vehicle control = 1
[1] = target: T1, HeLa cell extract proteins (Homo sapiens, UniProt P51570); format: binding
T1 construct: endogenous in cells; host or cells: HeLa cell extract

[2] = target: T. brucei lysate proteins (Trypanosoma brucei brucei, UniProt P13377); format: binding
[3] = target: T. brucei lysate proteins (Trypanosoma brucei brucei, UniProt P12861); format: binding
[4] = target: T. brucei lysate proteins (Trypanosoma brucei brucei, UniProt Q04933); format: binding
[5] = target: T. brucei lysate proteins (Trypanosoma brucei brucei, UniProt P07752); format: binding
TbDHFR = conditions: direct enzyme assays; cited from earlier work
TbTS = conditions: direct enzyme assays; read-out: TbTS Ki; cited from earlier work
DHFR-TS = DHFR-TS (Leishmania major, UniProt P07382); test: biochemical; conditions: competing free ligand 100 μM; bead = immobilized compound of the row; L. major lysate; read-out: % Inhibition of protein binding to bead, DHFR-TS, L. major
PTR1 = target: T2, PTR1 (Leishmania major, UniProt Q01782); test: biochemical; conditions: competing free ligand 100 μM; bead = immobilized compound of the row; L. major lysate; read-out: % Inhibition of protein binding to bead, PTR-1, L. major
T2 sequence (Q01782 1-288): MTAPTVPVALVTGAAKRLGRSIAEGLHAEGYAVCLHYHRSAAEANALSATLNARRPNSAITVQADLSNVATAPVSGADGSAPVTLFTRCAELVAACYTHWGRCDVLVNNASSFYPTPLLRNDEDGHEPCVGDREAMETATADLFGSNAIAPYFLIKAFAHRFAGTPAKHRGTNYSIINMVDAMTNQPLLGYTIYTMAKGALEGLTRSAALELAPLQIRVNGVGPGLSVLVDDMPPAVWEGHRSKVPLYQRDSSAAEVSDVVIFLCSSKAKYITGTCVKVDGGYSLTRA

[6] = target: T3, HeLa cell extract proteins (Homo sapiens, UniProt P17655); format: binding; conditions: protein CAPN2; HeLa
T3 construct: endogenous in cells; host or cells: HeLa cell extract
T3 sequence (P17655 1-700): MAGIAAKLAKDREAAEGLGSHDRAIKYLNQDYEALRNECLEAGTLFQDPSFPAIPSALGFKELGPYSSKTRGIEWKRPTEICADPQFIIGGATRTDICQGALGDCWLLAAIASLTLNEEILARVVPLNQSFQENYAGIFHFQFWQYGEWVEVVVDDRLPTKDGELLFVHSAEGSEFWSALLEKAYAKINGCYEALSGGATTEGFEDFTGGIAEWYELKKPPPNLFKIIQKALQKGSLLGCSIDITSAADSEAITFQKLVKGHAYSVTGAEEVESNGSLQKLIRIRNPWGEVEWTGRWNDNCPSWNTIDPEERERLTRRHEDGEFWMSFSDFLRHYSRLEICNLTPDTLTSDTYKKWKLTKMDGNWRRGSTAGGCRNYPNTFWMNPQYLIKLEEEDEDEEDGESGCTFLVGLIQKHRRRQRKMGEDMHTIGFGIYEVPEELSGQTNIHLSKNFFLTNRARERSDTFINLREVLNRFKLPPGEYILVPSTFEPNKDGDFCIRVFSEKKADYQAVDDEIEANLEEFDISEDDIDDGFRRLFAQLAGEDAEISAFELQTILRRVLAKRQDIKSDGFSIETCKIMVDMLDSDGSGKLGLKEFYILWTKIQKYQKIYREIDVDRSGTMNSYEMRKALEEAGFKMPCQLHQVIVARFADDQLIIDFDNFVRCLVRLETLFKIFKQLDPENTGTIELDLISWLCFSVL

[7] = target: T4, HeLa cell extract proteins (Homo sapiens, UniProt Q8WUK0); format: binding; conditions: captured protein PTPMT1; HeLa
T4 construct: endogenous in cells; host or cells: HeLa cell extract
T4 sequence (Q8WUK0 28-201): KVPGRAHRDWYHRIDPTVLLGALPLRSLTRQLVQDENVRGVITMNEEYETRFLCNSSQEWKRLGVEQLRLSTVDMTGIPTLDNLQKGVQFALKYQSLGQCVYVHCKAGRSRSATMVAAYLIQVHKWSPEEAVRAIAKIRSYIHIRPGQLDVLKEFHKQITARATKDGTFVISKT

[8] = target: T. brucei lysate proteins (Trypanosoma brucei brucei, UniProt P38973); format: binding; conditions: protein TB427.10.1070 CELL DIVISION PROTEIN KINASE 2 HOMOLOG 1 (CRK1)
[9] = tested on: HYPOTHETICAL PROTEIN, CONSERVED (TB427.05.3680); test: Multitargeted bead mixture competition; format: binding; conditions: free ligand 100 μM, T. brucei lysate
[10] = tested on: BRANCHED-CHAIN AMINO ACID AMINOTRANSFERASE, PUTATI (TB427.02.4590); test: Multitargeted bead mixture competition; format: binding; conditions: free ligand 100 μM, T. brucei lysate
TB927.8.6760 = test: Multitargeted bead mixture competition; format: binding; conditions: free ligand 100 μM, T. brucei lysate
[11] = tested on: HYPOTHETICAL PROTEIN, CONSERVED (TB427.03.2670); test: Multitargeted bead mixture competition; format: binding; conditions: free ligand 100 μM, T. brucei lysate
TB427.04.1870 = test: Multitargeted bead mixture competition; format: binding; conditions: free ligand 100 μM, T. brucei lysate
[12] = tested on: PHOSPHATIDYLINOSITOL-4-PHOSPHATE 5-KINASE, PUTATIV (TB427.10.3890); test: Multitargeted bead mixture competition; format: binding; conditions: free ligand 100 μM, T. brucei lysate
T. brucei = tested on: T. brucei; design: method as in ref 5 (SI); conditions: ref 5 (SI); read-out: EC50 against T. brucei, in vitro cell growth; cited from earlier work
[13] = tested on: SUCCINYL-COA SYNTHETASE ALPHA SUBUNIT, PUTATIVE (Tb427.03.2230); test: Multitargeted bead mixture competition; format: binding; conditions: free ligand 100 μM, T. brucei lysate
[14] = tested on: PEPTIDYL-PROLYL CIS-TRANS ISOMERASE (CYCLOPHILIN- (TB427TMP.211.1350)); test: Multitargeted bead mixture competition; format: binding; conditions: free ligand 100 μM, T. brucei lysate
TB09.211.1690 = test: Multitargeted bead mixture competition; format: binding; conditions: free ligand 100 μM, T. brucei lysate
[15] = HeLa, protein GALK1 (CDNA FLJ56840, HIGHLY SIMILAR TO GALACTOKINASE)
[16] = protein TB427.01.3830 GLUCOSE-6-PHOSPHATE ISOMERASE, GLYCOSOMAL, vehicle control = 1
[17] = protein TB427.10.10980 HEAT SHOCK PROTEIN 83, vehicle control = 1
[18] = protein TB427TMP.01.8470 DIHYDROLIPOYL DEHYDROGENASE, vehicle control = 1
[19] = protein TB927.10.5620 FRUCTOSE-BI[…], GLYCOSOMAL, vehicle control = 1

Sequence of T. brucei lysate proteins (Trypanosoma brucei brucei, UniProt P38973) (P38973 whole entry): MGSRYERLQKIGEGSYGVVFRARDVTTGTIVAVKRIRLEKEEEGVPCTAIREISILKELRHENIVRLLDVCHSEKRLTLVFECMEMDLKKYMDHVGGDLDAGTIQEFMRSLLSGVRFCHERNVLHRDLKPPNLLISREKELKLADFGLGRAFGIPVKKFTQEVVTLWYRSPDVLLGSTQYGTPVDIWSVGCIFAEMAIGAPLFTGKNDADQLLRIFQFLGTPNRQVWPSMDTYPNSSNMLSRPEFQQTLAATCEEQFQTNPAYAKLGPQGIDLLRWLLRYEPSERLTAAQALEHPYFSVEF
T1 sequence (P51570 whole entry): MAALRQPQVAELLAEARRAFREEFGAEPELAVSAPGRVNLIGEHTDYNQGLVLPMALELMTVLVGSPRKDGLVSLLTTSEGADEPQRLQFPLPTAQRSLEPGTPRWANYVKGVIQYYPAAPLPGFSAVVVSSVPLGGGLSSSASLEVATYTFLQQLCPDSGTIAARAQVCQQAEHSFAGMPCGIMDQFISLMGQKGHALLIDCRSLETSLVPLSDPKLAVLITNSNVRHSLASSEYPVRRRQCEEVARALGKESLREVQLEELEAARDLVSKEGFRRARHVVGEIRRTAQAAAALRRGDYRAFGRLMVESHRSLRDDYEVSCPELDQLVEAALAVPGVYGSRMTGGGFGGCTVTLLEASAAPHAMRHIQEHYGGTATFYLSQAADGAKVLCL
Sequence of T. brucei lysate proteins (Trypanosoma brucei brucei, UniProt P13377) (P13377 whole entry): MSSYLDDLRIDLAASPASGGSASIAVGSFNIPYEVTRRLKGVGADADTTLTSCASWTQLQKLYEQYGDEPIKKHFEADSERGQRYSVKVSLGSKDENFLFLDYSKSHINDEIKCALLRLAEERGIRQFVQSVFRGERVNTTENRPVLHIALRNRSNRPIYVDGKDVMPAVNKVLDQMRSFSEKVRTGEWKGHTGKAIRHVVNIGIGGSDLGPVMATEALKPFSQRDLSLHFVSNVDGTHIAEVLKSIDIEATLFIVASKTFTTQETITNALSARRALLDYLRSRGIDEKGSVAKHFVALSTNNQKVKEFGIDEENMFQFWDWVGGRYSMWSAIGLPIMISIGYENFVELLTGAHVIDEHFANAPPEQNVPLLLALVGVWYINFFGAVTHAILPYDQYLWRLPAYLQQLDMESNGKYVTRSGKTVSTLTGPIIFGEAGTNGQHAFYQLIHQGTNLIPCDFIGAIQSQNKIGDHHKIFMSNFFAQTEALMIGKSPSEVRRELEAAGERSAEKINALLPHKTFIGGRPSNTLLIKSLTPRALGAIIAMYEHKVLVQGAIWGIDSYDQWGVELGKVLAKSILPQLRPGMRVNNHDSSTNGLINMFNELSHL
Sequence of DHFR-TS (P07382 whole entry): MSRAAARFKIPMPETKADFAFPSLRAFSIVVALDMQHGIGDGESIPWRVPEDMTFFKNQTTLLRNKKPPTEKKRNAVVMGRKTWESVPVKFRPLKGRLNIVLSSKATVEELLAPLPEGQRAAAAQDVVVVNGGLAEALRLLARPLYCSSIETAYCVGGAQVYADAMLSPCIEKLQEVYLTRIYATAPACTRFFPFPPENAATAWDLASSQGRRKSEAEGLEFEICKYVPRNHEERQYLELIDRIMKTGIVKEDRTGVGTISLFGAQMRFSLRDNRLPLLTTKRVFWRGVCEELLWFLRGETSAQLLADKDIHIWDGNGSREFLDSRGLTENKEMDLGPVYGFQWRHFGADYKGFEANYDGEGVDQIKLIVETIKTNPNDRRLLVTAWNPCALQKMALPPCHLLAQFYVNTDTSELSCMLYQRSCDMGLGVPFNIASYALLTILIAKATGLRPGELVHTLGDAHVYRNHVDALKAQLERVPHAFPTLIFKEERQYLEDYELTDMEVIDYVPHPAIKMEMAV
Sequence of T. brucei lysate proteins (Trypanosoma brucei brucei, UniProt P12861) (P12861 whole entry): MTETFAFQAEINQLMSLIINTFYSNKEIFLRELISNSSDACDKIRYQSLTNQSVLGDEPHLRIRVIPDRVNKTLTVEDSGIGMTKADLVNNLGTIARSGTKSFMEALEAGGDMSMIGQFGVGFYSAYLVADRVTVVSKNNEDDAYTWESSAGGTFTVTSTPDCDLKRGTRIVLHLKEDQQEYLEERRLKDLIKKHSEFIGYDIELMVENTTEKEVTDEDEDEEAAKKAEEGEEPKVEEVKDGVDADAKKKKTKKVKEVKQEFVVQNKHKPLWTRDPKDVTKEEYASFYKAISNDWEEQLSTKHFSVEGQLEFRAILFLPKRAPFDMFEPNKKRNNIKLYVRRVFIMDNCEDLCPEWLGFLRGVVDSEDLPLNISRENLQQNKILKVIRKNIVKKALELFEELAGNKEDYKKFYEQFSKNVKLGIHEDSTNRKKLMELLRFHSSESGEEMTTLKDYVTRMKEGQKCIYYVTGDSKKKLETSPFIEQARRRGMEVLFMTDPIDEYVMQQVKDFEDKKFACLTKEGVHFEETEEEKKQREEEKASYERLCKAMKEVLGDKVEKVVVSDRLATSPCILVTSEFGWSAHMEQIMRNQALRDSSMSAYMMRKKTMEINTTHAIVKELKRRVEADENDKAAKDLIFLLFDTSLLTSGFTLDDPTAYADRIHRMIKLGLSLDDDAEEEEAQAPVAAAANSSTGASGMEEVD
Sequence of T. brucei lysate proteins (Trypanosoma brucei brucei, UniProt P07752) (P07752 whole entry): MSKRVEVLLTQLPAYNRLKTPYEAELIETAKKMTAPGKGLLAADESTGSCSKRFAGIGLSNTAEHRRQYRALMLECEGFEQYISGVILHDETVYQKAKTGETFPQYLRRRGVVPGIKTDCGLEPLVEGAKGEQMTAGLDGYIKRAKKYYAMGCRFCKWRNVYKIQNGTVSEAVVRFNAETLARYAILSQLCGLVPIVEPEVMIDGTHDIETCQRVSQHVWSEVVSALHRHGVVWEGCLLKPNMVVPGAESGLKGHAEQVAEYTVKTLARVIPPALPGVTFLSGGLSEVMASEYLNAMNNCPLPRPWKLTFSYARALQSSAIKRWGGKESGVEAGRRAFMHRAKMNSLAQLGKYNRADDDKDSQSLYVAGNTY
Sequence of T. brucei lysate proteins (Trypanosoma brucei brucei, UniProt Q04933) (Q04933 whole entry): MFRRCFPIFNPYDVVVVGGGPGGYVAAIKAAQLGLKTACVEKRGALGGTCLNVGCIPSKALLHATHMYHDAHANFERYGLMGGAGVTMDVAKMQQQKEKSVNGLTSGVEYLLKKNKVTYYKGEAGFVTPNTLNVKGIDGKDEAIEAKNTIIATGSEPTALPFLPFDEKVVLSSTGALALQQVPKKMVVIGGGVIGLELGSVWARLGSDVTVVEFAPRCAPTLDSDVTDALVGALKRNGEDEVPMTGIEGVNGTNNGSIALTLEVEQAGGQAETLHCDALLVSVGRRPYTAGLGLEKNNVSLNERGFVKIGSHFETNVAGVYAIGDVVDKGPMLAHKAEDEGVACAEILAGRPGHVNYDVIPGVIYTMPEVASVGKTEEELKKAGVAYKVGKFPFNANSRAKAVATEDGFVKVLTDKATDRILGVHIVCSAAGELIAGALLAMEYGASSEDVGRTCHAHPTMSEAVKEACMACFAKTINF

Compound | fold changes relative to vehicle control [1, 15] | fold change vs vehicle control [2, 16] | fold change vs vehicle control [3, 17] | fold change vs vehicle control [4, 18] | fold change vs vehicle control [5, 19] | fold change (TB927.8.6460; protein TB927.8.6460 HY[…]) | inhibition at 100 µM (DHFR-TS) | inhibition at 100 µM (PTR1) | fold changes relative to vehicle control [6] | fold changes relative to vehicle control [7] | fold change - vehicle control [8] | other results
Nc1nc2c(c(=O)[nH]1)N(C=O)C(CNc1ccc(C(=O)N[C@@H](CCC(=O)O)C(=O)O)cc1)CN2 (stereo partly shown) [LEU, leucovorin] | 1.18 | 1.22 | 1.64 | 0.93 | 1.22 | – | – | – | – | – | – | fold change (TB927.8.6460; protein TB927.8.6460 HYPOTHETICAL PROTEIN): 0.84
Nc1nc2[nH]cc(CCc3ccc(C(=O)N[C@@H](CCC(=O)O)C(=O)O)cc3)c2c(=O)[nH]1 [PTX, pemetrexed] | – | – | – | – | – | 0.66 | – | – | – | – | – | Ki (TbDHFR): 0.29 ± 0.02 µM; Ki (TbTS): 20.5 µM; fold changes relative to vehicle control [1]: 1.27; fold change vs vehicle control [2]: 0.85; fold change vs vehicle control [3]: 0.76; fold change vs vehicle control [4]: 0.97; fold change vs vehicle control [5]: 1.11
CCCCCCOc1ccc(Cc2cnc(N)nc2N)cc1 [compound 1] | – | – | – | – | – | – | < 50% | < 50% | 0.97 | 0.88 | 0.76 | –
CCCCCCOc1cccc(Cc2cnc(N)nc2N)c1 [compound 2] | – | – | – | – | – | – | < 50% | < 50% | 1.23 | 0.91 | 0.86 | –
Nc1nc2cccc(-c3ccccc3)c2n1Cc1ccc(Cl)c(Cl)c1 [compound 3] | – | – | – | – | – | – | < 50% | < 50% | 0.91 | 0.93 | 0.91 | percentage of competition from bead binding [9]: 68%; percentage of competition from bead binding [10]: 51%; percentage of competition from bead binding (TB927.8.6760): 20%; percentage of competition from bead binding [11]: 62%; percentage of competition from bead binding (TB427.04.1870): 47%; percentage of competition from bead binding [12]: -23%; EC50 (T. brucei): 10 µM; percentage of competition from bead binding (TB927.8.6460; multitargeted bead mixture, free ligand 100 μM, T. brucei lysate, TB927.8.6460): 15%; percentage of competition from bead binding [13]: 10%; percentage of competition from bead binding [14]: 38%; percentage of competition from bead binding (TB09.211.1690): 39%
NCCOCCOCC(=O)Nc1nc2ncc(CNc3ccc(C(=O)NC(CCC(=O)O)C(=O)O)cc3)nc2c(=O)[nH]1 (stereo not shown) [compound 6] | 1.12 | 0.98 | 1.41 | 0.97 | 1.2 | 1.03 | – | – | – | – | – | –
NCCCNc1ccc(C(=O)NC(CCC(=O)O)C(=O)O)cc1 (stereo not shown) [compound 7] | 1.2 | 0.88 | 1 | 1.05 | 1.08 | 1.04 | – | – | – | – | – | –
